Patent US4402970A, “1,7-Dihydro-pyrrolo[3,4-e][1,4]diazepin-2(1H)-one derivatives” (Gruppo Lepetit S.p.A., priority 1981, dated 1983)
Read-outs that look alike come from different tables or passages of the source.

Legend:
[1] = biological target: benzodiazepine receptors; assay: benzodiazepine receptors test in vitro (displacement of 3H-Diazepam from rat brain receptors); assay type: binding
Description: (§1) The anti-anxiety activity of the compounds of the present invention was first shown by submitting the compounds to the "benzodiazepine receptors" test both in vitro and in vivo.
(§2) The in vitro experiments were carried out by following the method described by H. Moler and T. Okada in Life Sciences Vol. 20, 2101-2110 (1977) while those in vivo were carried out according to the procedures illustrated by S. Lippa et al. in Pharmacol. Biochem. & Behaviour, Vol. 9, pp. 853-856 (1978).

[2] = test system: benzodiazepine receptors; assay: benzodiazepine receptors test in vivo (displacement of 3H-Diazepam from rat brain receptors)
Description: as §1, §2

[3] = test system: rats; assay: potentiation of hexobarbital-induced sleeping time in rats (inducing activity); assay type: in vivo; details: for potentiation of hexobarbital-induced "sleeping time": same conditions, higher doses than 1 mg/kg p.o.
Description: (§3) This is considered as an indication of the absence of inducing activity. These favorable pharmacological properties of the compounds of the present invention are accompanied by a low toxicity, lower than that of the prior-art compounds. As an example, while the acute oral toxicity of the prior-art 3,7-dihydro-6,7-dimethyl-5-phenylpyrrolo[3,4-e][1,4]diazepin-2(1H)-one in mice is about 500 mg/kg, that of the compound of example 5 of the present invention is comprised between 600 and 700 mg/kg and that of the compound of example 11 is higher than 20,000 mg/kg.

[4] = acute oral toxicity in mice; details: mouse, in vivo
Description: as §3

[5] = test system: mice (pentylenetetrazole-induced death); assay: antipentylenetetrazole bioassay in mice (anticonvulsant activity); assay type: in vivo; details: oral; for ED50: Mus musculus, 2 h
Description: To evaluate the anticonvulsant activity the compounds of the present invention have been submitted to the antipentylenetetrazole bioassay in mice. The experiments have been carried out by following essentially the methodology described by Berger in J. Pharm. Exptl. Ther. 104, 468, (1952). More particularly, a fatal dose of pentylenetetrazole (140 mg/kg s.c.) was administered to groups of ten mice each, treated, 30 minutes before the administration of the convulsant agent, with a selected dose of the potential anticonvulsant compound. […] Since the animals of the control group died within 30 minutes, the effectiveness of the compounds tested, at each dose tested, was expressed as the number of animals of the group which were still alive two hours after the administration of pentylenetetrazole, out of the total number of animals of the group (10).
By testing each compound at different doses, the corresponding ED50, i.e. the dose at which 50% of the treated animals are protected, was calculated.
The same test was carried out also with 3,7-dihydro-6,7-dimethyl-5-phenyl-pyrrol[3,4-e][1,4]diazepin-2 (1H)-one (IX) [drawing 13]

[6] = test system: monkeys; assay: taming effect test on naturally vicious and aggressive monkeys; assay type: in vivo; details: oral dose of 1 mg/kg
Text: Another behavioural test which confirmed the anti-anxiety properties of the compounds of the present invention was the so-called "taming effect" test carried out on naturally vicious and aggressive monkeys.
The "taming effect" on monkeys is one of the most meaningful and reliable parameters with which the anti-anxiety properties of a compound can be investigated. […] A true "taming effect", as an indication of the anti-anxiety properties of a compound not ascribable to CNS-depression, is reached when the animals become docile and friendly so as to accept food from the observer's hand.

[7] = 30 minutes before pentylenetetrazole 140 mg/kg s.c., survival at two hours, read-out: ED50 (dose at which 50% of the treated animals are protected)

In the case of `Cc1c2c(cn1C)NC(=O)C(O)N=C2c1ccccc1` (stereo not shown) [Example 5, 1,7-Dihydro-3-hydroxy-6,7-dimethyl-5-phenyl-pyrrolo[3,4-e][1,4]diazepin-2(1H)-one], the Ki [1] is reported as 45.9 nM, the “"in vivo" % inhibition at 1 mg/kg/os” value [2] is reported as -45% and the “potentiation of hexobarbital-induced "sleeping time"” value [3] is reported as “did not show this potentiating effect even at higher doses”. For the same molecule, the LD50 [4] was 600 to 700 mg/kg.

In the case of `Cc1c2c(cn1C)NC(=O)C(O)N=C2c1ccccc1Cl` (stereo not shown) [Example 10], the ED50 [5, 7] is reported as 7.5 mg/kg and the “treated animals displaying a true "taming effect"” value [6] is reported as “at least 50%”.

In the case of `CC(=O)OC1N=C(c2ccccc2Cl)c2c(cn(C)c2C)NC1=O` (stereo not shown) [Example 9, 5-(2-chlorophenyl)-3-acetoxy-1,7-dihydro-6,7-dimethylpyrrolo[3,4-e][1,4]diazepin-2-(1H)-one], the ED50 [5, 7] is reported as 7.5 mg/kg.

In the case of `Cc1c2c(cn1C)N(C)C(=O)C(O)N=C2c1ccccc1Cl` (stereo not shown) [Example 11, 5-(2-Chlorophenyl)-1,7-dihydro-3-hydroxy-1,6,7-trimethylpyrrolo[3,4-e][1,4]diazepin-2(1H)-one], the ED50 [5, 7] is reported as 5 mg/kg, the Ki [1] is reported as 2.82 nM and the “"in vivo" % inhibition at 1 mg/kg/os” value [2] is reported as -54%. The “treated animals displaying a true "taming effect"” value [6] was “at least 50%”, the “potentiation of hexobarbital-induced "sleeping time"” value [3] was “did not show this potentiating effect even at higher doses” and the LD50 [4] was greater than 20000 mg/kg.

For `Cc1c2c(cn1C)NC(=O)CN=C2c1ccccc1` [IX, 3,7-dihydro-6,7-dimethyl-5-phenyl-pyrrol[3,4-e][1,4]diazepin-2 (1H)-one, reference compound], the ED50 ([5]; prior-art compound, calculated in the same way, read-out: ED50) was 15 mg/kg, the “anticonvulsant activity relative to the compounds of the present invention” value ([5]; comparison of ED50) was “at least twice less active than the compounds of the present invention” and the Ki [1] was 97 nM. The “"in vivo" % inhibition at 1 mg/kg/os” value [2] was -33%, the “dose from which hexobarbital-induced "sleeping time" is potentiated” value ([3]; p.o.) was 1 mg/kg p.o and the LD50 [4] was roughly 500 mg/kg.
